Laboratory results: a melting point compilation (Tetko et al.; mined from patent text by program, amines drawn as free bases though some values may be those of a salt)
Non-standard residues stand in square brackets, D forms with d. Residues, ends and D or L forms follow the SMILES beside them. *: point of attachment. Leu(ol) = CC(C)C[C@H](N)CO; Cbz = O=C(OCc1ccccc1)*

Compound	melting point [°C]
COc1ccc(CC(=O)c2ccc(OCc3ccccc3)cc2O)cc1	97 to 98
O=C(CN1C(=O)c2ccccc2C1=O)NCc1nncn1-c1ccc(Cl)cc1C(=O)c1ccccc1	214 to 215
O=C1N(Cc2ccccn2)c2c(F)cccc2C12COc1cc3c(cc12)OCCO3 (stereo not drawn)	205 to 207
ClCc1coc(C2=Cc3ccccc3CC2)n1	73 to 74
Cc1c(C2CCC(c3ccccc3)(N(C)C)CC2)[nH]c2ccc(C(F)(F)F)cc12 (stereo not drawn)	204 to 217
Cc1ccc2ccc(Cn3c(=S)sc4ccccc43)c(O)c2n1	211 to 215
CCc1nc2c(Cl)nc(C)cc2n1Cc1ccccc1	140 to 141
O=C(O)CC[C@@H](C(=O)OCc1ccccc1)n1c2ccccc2c2ccccc21	100
Cc1ccc(F)cc1C(=O)N1Cc2cccnc2Nc2ccccc21	138 to 140
CN1C(=O)CN=C(c2ccccc2F)c2c1ccc(NC(=O)NC(C)(C)C)c2Cl	206 to 208
CCCOC1CCC(=O)N1 (stereo not drawn)	52 to 54
Nc1ccc(C2=NNC(=O)C3CC23)cc1 (stereo not drawn)	230 to 231
O=C(O)C1=Cc2cc(F)cc(F)c2OC1C(F)(F)F (stereo not drawn)	207 to 211
Cc1cc([N+](=O)[O-])c(Cl)c([N+](=O)[O-])c1C	109 to 111
COc1ccccc1NC(=O)Nc1cccc(-n2c(=O)c(CCC(=O)ON3C(=O)CCC3=O)nc3cccnc32)c1	235 to 237
O=[N+]([O-])c1cccc(C(c2cccc([N+](=O)[O-])c2)(C(F)(F)F)C(F)(F)F)c1	118 to 119
CCCCCCCCCC(=O)Nc1ccc2c(c1)C(=O)N(CCN1CCC(c3noc4cc(F)ccc34)CC1)C2=O	159 to 160
FCc1cccc(C#CCCc2cnc3cc(F)c(F)cc3n2)n1	135 to 138
CCCCCCCCn1c(=O)n(CCN2CCN(c3ccccc3OC)CC2)c(=O)c2cscc21	82 to 84
Cn1cnc(C(c2ccc(Cl)cc2)c2ccc3c(c2)c(-c2ccccc2)cc(=O)n3C)c1 (stereo not drawn)	150
CN(CCCCCCCNC(=NCCSCc1csc(NC(=N)N)n1)NC#N)CCN(Cc1ccc(F)cc1)c1ccccn1	118
COc1ccc(C=O)c(O)c1O	116 to 117

Compound	melting point [°C]
COc1ccc2cc(OCc3ccccc3)c(C(=O)O)cc2c1	177 to 179
O=C(C1CCN(c2ccncc2)CC1)N1CCN(Cc2ccc(Br)cc2)CC1	148 to 149
O=C(N[C@H]1CC[C@H](CCN2CCC(c3cccc4c3CCO4)CC2)CC1)C1CC1	208
Cc1ccc(/C=C/C(=O)N[C@@H]2N=C(c3ccccc3)c3ccccc3N(C)C2=O)cc1	133 to 135
O=S(=O)(CC1CC1)c1nc(-c2ccc(F)cc2)c(-c2ccc(F)cc2)[nH]1	251
O=C1CC(SCc2ccccc2)C(O)(c2ccccc2)C(SCc2ccccc2)C1 (stereo not drawn)	120
CCc1nc2c(N)nc3cc(OCc4ccc(S(=O)(=O)NCCc5cc6ccccc6[nH]5)cc4)ccc3c2s1	100 to 101
CN(c1cccc2cc(-c3ncc(CO)s3)[nH]c12)S(=O)(=O)c1cccs1	201 to 202
O=C1CC(C(F)(F)F)CC(=O)O1	88 to 91
Fc1cc(Cl)c2ccc(Cl)cc2n1	105 to 106
NC(=O)Cc1nc(-c2ccc(Cl)cc2)sc1-c1ccccc1	202 to 203
Nc1scc2c1C(=O)c1c-2ccc(Cl)c1Cl	254 to 255
Cc1cc2c(cc1Cl)NC(=O)CC(c1cccc(-c3ccnc(CNC4CC4)c3)c1)=N2	171
NCc1ccccc1C1CCN(c2cc3c(cc2F)c(=O)c(C(=O)O)cn3C2CC2)C1 (stereo not drawn)	245 to 247
CN(C)C(N)=Nc1cc(C#N)ccc1N1CCOCC1	125 to 127
CC1(C)CCc2ccccc2C1c1cncnc1SCF (stereo not drawn)	126 to 128
O=c1ccn(C2CC(O)C(CNC(c3ccccc3)(c3ccccc3)c3ccccc3Cl)O2)c(=O)[nH]1 (stereo not drawn)	129 to 131
FC(F)(F)c1cccc(Nc2ccccc2-c2n[nH]c(=S)s2)c1	140 to 142
COc1ccccc1NC(=O)c1ccccc1CN1C(=O)C2(COc3cc4c(cc32)CCO4)c2ccccc21 (stereo not drawn)	172 to 174
Nc1cc(S(N)(=O)=O)ccc1S(=O)(=O)CCCO	136 to 138
CC(C)[C@H](NC(=O)c1ccccc1)C(=O)NCC(=O)O	190 to 191
Cc1ccc2nc3cc(C)c(=O)cc-3sc2c1	177

Compound	melting point [°C]
Nc1cc(C(=O)O)cc(OCc2ccccn2)c1C(=O)c1ccccc1	212 to 213
N#CCCN1c2ccccc2Sc2ccccc21	158 to 160
Oc1cccc2c3ccccc3n(C3CCCCO3)c12 (stereo not drawn)	137 to 140
CN(C)C(=O)Nc1cccc(C#N)n1	125
C[C@@H]1CNC(=O)c2cc3ccc(C(F)(F)F)cc3n21	201 to 204
CC(C)[C@H](NC(=O)N(C)Cc1nc2ccccc2[nH]1)C(=O)N[C@@H](Cc1ccccc1)C[C@H](O)[C@H](Cc1ccccc1)NC(=O)OCc1cccnc1	97 to 100
Cc1cc(C)cc(NC(=O)Cc2ccc(OC3(C(=O)N[C@@H](C)C(=O)O)CCCC3)cc2)c1	90 to 91
CCC(=O)Nc1cccc2c1C(=O)c1cccc(NC(=O)CC)c1C2=O	321
CCCCCCCCCCCCSc1nnn[nH]1	85 to 87
CC1(C)OC(=O)c2c(cccc2-c2ccccc2)O1	158 to 163
O=C(O)COc1ccc(CCNS(=O)(=O)c2ccccc2)cc1[N+](=O)[O-]	135 to 136
C[C@H]1C[C@H](OC(=O)C(C)(C)Oc2ccc(-c3ccccc3)cc2)CC(C)(C)C1 (relative stereo)	96
Cc1c(O)cc(O)c(C)c1C(=O)OCc1ccc([N+](=O)[O-])cc1	164 to 166
Cc1cccc(C)c1N1C(=N)N(c2c(C)cccc2C)C(C)C1C (stereo not drawn)	155 to 157
CCCCCC(=O)NC(C)(C)C(=O)O	141 to 143
COc1ccccc1-c1cn([C@H]2CN3CCC2CC3)nn1	120
O=C1Nc2ccccc2N(C(=O)CCCCl)c2ccccc21	151 to 152
Cc1cccc(C(O)(c2cccc(C)c2)c2cccc(-c3ccc4ccccc4c3)c2)c1	58 to 60
C=CC1CC2=CC(=O)CCC2(C)C2CCC3(C)C(CCC3(C)O)C12 (stereo not drawn)	116 to 117
NC(=O)c1cc(O)cc2nc(-c3ccc(O)cc3)oc12	325
O=C(Nc1ccc2[nH]ncc2c1)c1ccccc1NCC1CCOCC1	174

Further lines, results first:

melting point [°C]	Compound
> 300	Cn1nnc2c3nc(O)c(O)nc3ccc21
99 to 100	CCOC(=O)C(Br)=NNc1ccc(F)cc1
103 to 105	CCCOC(Cc1ccc(OCCc2nc(-c3ccccc3)oc2C)c2ccccc12)C(=O)O (stereo not drawn)
188	COc1ccc2c(c1)S(=O)(=O)N(C(C)C)C2=O
202	COc1cc(OC)c2c(=O)[nH]c(-c3cc(C)c(OCCN4Cc5ccccc5C4)c(C)c3)nc2c1
143 to 146	CNc1c(C)c(C)c(OC(C)=O)c(C)c1[N+](=O)[O-]
106 to 107	CCOC(=O)CN(c1c([N+](=O)[O-])cc([N+](=O)[O-])c2ccccc12)S(=O)(=O)c1ccc(C)cc1
134 to 136	CCCCNc1c(C(=O)OCC)cnc(O)c1C(C)=O
83 to 84	CCc1nnc(CCCOc2c(C)cc(-c3noc(C(F)F)n3)cc2C)s1
123 to 125	CCOC(=O)C(N=Nc1sc(C)c(C)c1C(=O)c1ccccc1)NC(=O)CCl (stereo not drawn)
119	CCC(=O)c1ccc(-c2cc(NC(=O)OC(C)(C)C)ccc2C)c(C)c1
132 to 133	NC(=O)c1cccc(OCCCCCn2cnc3c(Cl)ncnc32)c1
181	CCOC(=O)N1CC[C@H](NC(=O)c2cc([N+](=O)[O-])c(Cl)cc2OC)[C@H](OC)C1 (relative stereo)
181	CCCCn1nc(SCc2ccc(OC)cc2)c(C(=O)O)c1Cc1cc2c(cc1Cl)OCO2
213 to 216	CCOC(=O)c1c[nH]c2cc(Cl)c(F)c(NCC=O)c2c1=O
221 to 223	CCOCc1nc2c(N)nc3ccccc3c2n1CC1(OCCS(C)(=O)=O)CCC1
68 to 71	COc1ccc(OC(=O)CN2CCN(Cc3ccc(OC)c(OC)c3OC)CC2)cc1

melting point [°C]	Compound
130 to 133	CCOC(=O)C1=C(C)NC(C=O)=C(C(=O)OCC)C1c1cccc([N+](=O)[O-])c1 (stereo not drawn)
217 to 221	COc1ccc(-c2nc3ccc(C(C)(C)CNC=O)cc3[nH]2)cn1
136 to 138	CCNC(=O)NCCC1CCc2ccc3nc(C)oc3c21 (stereo not drawn)
93 to 97	CN(Cc1cc2c(=O)c(C(=O)NCc3ccc(Cl)cc3)cn(C)c2o1)CC(O)c1ccoc1 (stereo not drawn)
181 to 183	CC(C)C[C@@H](CO)NC(=O)[C@H](Cc1c[nH]cn1)NC(=O)[C@H](Cc1ccccc1)NC(=O)OCc1ccccc1 (Cbz-Phe-His-[Leu(ol)])
138 to 140	Cn1c(C=NNCCO)cnc1[N+](=O)[O-]
207 to 210	CC(C)(C)OC(=O)N1CCN(c2ccc(OC[C@@]3(C)Cn4cc([N+](=O)[O-])nc4O3)cc2Cl)CC1
120 to 122	CCOC(=O)c1c[nH]cc1-c1cccc(F)c1
186 to 188	CCCn1cc(C(=O)NCc2ccc(Cl)cc2)c(=O)c2cc(CCl)sc21
100 to 102	CCOC(=O)c1cnc2nn(C)cc2c1OCCC(C)C
180 to 184	CCCOc1c(OC)cc(C(=O)Cl)cc1[N+](=O)[O-]
188 to 190	CCOC(=O)c1sc(-n2ccc(OCCC3CC3)cc2=O)nc1C
155 to 158	CCOC(=O)c1cnc2cc(OC)c(OC)cc2c1Nc1cccc(Br)c1
79	CC(=O)Oc1c(C(C)(C)C)cc(O)c(C=O)c1C(C)(C)C
76.5 to 79	CCOC(=O)C1CCc2c(c(C)nn2C)C1=O (stereo not drawn)
168 to 170	Cn1cc(C(=O)NCc2ccc(Cl)cc2)c(=O)c2cc(CO)ccc21
